Article PMC5995905, “Confirmation of high-throughput screening data and novel mechanistic insights into VDR-xenobiotic interactions by orthogonal assays” (Scientific Reports, 2018)
Where “and” joins values, the source holds several entries; their conditions need not be identical. Equal values may be shown once. Entries after “also recorded” stand apart in the source; their conditions may differ. Where a name gives a salt, the structure may show the parent alone. Read-outs that look alike come from different tables or passages of the source.

Tests used:
VDR:SRC-1 = VDR:SRC-1 (Homo sapiens, UniProt P11473); assay: Mammalian 2-hybrid assay, recruitment of coactivator SRC-1 by VDR, Cos7 cells; conditions: agonists; -RXR (empty pSG5); percentage of vitamin D3; conc. in Fig 5: ergocalciferol 60, lithocholic acid 50, calcipotriol 0.05, ethylphenol compound 40, 9 aminoacridine 50, tamoxifen citrate 20 μM
[1] = target: human VDR ligand-binding domain; set-up: method as in PMID 21543282; conditions: agonist mode; Tox21 qHTS data set; * = range of values; cited from earlier work
human VDR [2] = target: T1, human VDR (Homo sapiens, UniProt P11473); assay: Transient transactivation assay (CYP24-Luc), agonist mode, HEK293T cells; conditions: for Derived Efficacy (fold induction): top asymptote of Hill or Gain-Loss model, maximum response
T1 sequence (P11473 1-427): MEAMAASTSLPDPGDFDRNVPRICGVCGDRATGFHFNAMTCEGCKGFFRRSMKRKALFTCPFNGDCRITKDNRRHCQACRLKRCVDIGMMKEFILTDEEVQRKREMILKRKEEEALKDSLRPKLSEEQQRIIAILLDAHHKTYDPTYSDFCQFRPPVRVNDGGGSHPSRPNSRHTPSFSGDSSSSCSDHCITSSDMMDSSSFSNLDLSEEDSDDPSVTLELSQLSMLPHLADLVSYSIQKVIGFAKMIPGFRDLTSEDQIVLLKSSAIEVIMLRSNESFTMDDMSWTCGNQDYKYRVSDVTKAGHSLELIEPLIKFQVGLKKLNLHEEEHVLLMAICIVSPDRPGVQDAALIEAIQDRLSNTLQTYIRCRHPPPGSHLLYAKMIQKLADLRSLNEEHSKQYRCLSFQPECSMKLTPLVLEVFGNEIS

[3] = target: human VDR ligand-binding domain; set-up: method as in PMID 21543282; conditions: read-out: Tox21 IC 50, cited from earlier work
[4] = target: T2, VDR:RXR, VDR:SRC-1 and VDR:NCoR interactions (Homo sapiens, UniProt P11473); assay: Mammalian 2-hybrid assay, summary in words of VDR coregulator interactions; format: cell-based
T2 sequence (P11473 1-427): T1 sequence (P11473 1-427)

human VDR [5] = target: T1, human VDR; assay: Transient transactivation assay (CYP24-Luc), antagonist mode with 3 nM 1,25D3, HEK293T cells; format: cell-based
VDR:NCoR = target: T3, VDR:NCoR (Homo sapiens, UniProt P11473); assay: Mammalian 2-hybrid assay, recruitment of corepressor NCoR by VDR, Cos7 cells
T3 sequence (P11473 1-427): T1 sequence (P11473 1-427)

[6] = AC50 (μM), experimental AC50 as listed in Fig 4a, agonists
[7] = Derived AC50 (Transient transactivation assay), agonist mode, HEK293T cells, CYP24A1-Luc
[8] = agonists, orthogonal transient transactivation assay, HEK293T cells
[9] = Derived IC 50 (Transient transactivation assay)
[10] = read-out: Derived IC 50 (Transient transactivation assay)
[11] = antagonist mode, Tox21 qHTS data set
[12] = top asymptote of Hill or Gain-Loss model, maximum response
[13] = antagonists, transient transactivation assay in the presence of 3 nM 1,25D3
[14] = inhibition of 3 nM 1,25D3-induced response, HEK293T cells, unit given in Fig 3 legend, read-out: Derived IC 50 (Transient transactivation assay)
[15] = experimental AC50 as listed in Fig 4a, antagonists, read-out: AC50

CCc1cc(Cc2cc(CC)cc(C(C)(C)C)c2O)c(O)c(C(C)(C)C)c1 [2,2′-methylenebis(6-tert-butyl-4-ethylphenol)]
% Induction, pMSRC-1NR + EpSG5 (VDR:SRC-1): 7.2% | AC50 [1]: 52600 nM | AC50 (human VDR [2]; [6]): 35.4 µM | AC50 (human VDR [2]; [7]): 36.8 µM | Activity (human VDR [2]; [8]): Active | Derived Efficacy (fold induction) (human VDR [2]): 89.3748 fold induction

O=S(=O)(O)c1ccc2ccc(S(=O)(=O)O)cc2c1 [2,7 Naphthalene disulfonic acid]
AC50 [1]: 14500 nM | AC50 (human VDR [2]; [7]): 13.8 µM | Activity (human VDR [2]; [8]): Active | Derived Efficacy (fold induction) (human VDR [2]): 14.1669 fold induction

Cc1cc(=O)oc2cc(N(C)C)ccc12 [7-(Dimethylamino)-4-methylcoumarin]
AC50 [1]: 2880 to 21500 nM | AC50 (human VDR [2]; [7]): 0.793 µM | Activity (human VDR [2]; [8]): Active | Derived Efficacy (fold induction) (human VDR [2]): 17.3255 fold induction

COc1cccc2c1cc([N+](=O)[O-])c1c(C(=O)O)cc3c(c12)OCO3 [Aristolochic acid]
IC50 [3]: 7320 nM | pattern of change of 1,25D3 induced VDR:coregulator interaction [4]: enhanced the interaction between VDR:SRC-1 only in the absence of RXR | Activity (human VDR [5]): Active | Derived Efficacy (fold inhibition) (human VDR [5]): 76.1807 fold inhibition | IC50 (human VDR [5]; [9]): 820 nM and 827 nM | Fold Change (pMNCoR + EpSG5) (VDR:NCoR): 25.8

O=S(=O)(O)c1ccccc1 [Benzenesulfonic acid]
AC50 [1]: 9900 nM | pattern of VDR:coregulator interaction facilitated by the ligand [4]: did not facilitate VDR:RXR or VDR:SRC-1 interactions under any condition | Activity (human VDR [2]): Active | AC50 (human VDR [2]; read-out: Derived AC50 (Transient transactivation assay)): 0.772 µM | Derived Efficacy (fold induction) (human VDR [2]): 13.6777 fold induction

C=C1/C(=C\C=C2/CCC[C@]3(C)[C@@H]([C@H](C)/C=C/[C@@H](O)C4CC4)CC[C@@H]23)C[C@@H](O)C[C@@H]1O [Calcipotriol, reference compound]
% Induction, pMSRC-1NR + EpSG5 (VDR:SRC-1): 142.9% | AC50 [1]: 0.294 nM | Activity (human VDR [2]; [8]): Active

O=C(O)CCCc1ccc(N(CCCl)CCCl)cc1 [Chlorambucil, reference compound]
IC50 [3]: 0.058 nM | Activity (human VDR [5]): Active | Derived Efficacy (fold inhibition) (human VDR [5]): 68.5251 fold inhibition | IC50 (human VDR [5]; [9]): 21 nM | Fold Change (pMNCoR + EpSG5) (VDR:NCoR): 0.9

CCC[CH2][Sn]([Cl])([Cl])[CH2]CCC [Dibutyltin dichloride]
IC50 [3]: 82.3 nM | pattern of change of 1,25D3 induced VDR:coregulator interaction [4]: consistently attenuate recruitment VDR:RXR and VDR:SRC-1 in both the presence and absence of co-expressed coregulators | Activity (human VDR [5]): Active | Derived Efficacy (fold inhibition) (human VDR [5]): 20.5748 fold inhibition | IC50 (human VDR [5]; [10]): 540 nM and 542 nM

O=C1C(Cl)=C(Cl)C(=O)c2ccccc21 [Dichlone]
Activity (human VDR [2]): very weak agonist activity | AC50 (human VDR [5]): 19800 nM | Activity (human VDR [5]): moderate to marked synergistic activity; also recorded: Active | Derived Efficacy (fold inhibition) (human VDR [5]): 86.9798 fold inhibition | IC50 (human VDR [5]; [9]): 240 nM and 243 nM | Fold Change (pMNCoR + EpSG5) (VDR:NCoR): 1.1

C=C1CC[C@H](O)C/C1=C/C=C1\CCC[C@]2(C)[C@@H]([C@H](C)/C=C/[C@H](C)C(C)C)CC[C@@H]12 [Ergocalciferol, reference compound]
AC50 [1]: 4280 to 9020 nM

O=C([O-])c1ccccc1-c1c2ccc(=O)cc-2oc2cc([O-])ccc12.[Na+].[Na+] [Fluorescein sodium, reference compound]
IC50 [3, 11]: 356 nM | Derived Efficacy (fold inhibition) (human VDR [5]; [12]): 101.7383 fold inhibition

N#C/C(=C1/SCC(c2ccccc2Cl)S1)n1ccnc1 (centres unmarked) [Lanoconazole, reference compound]
AC50 [1]: 21100 nM

Cc1cc(O)c2ccccc2c1O [Menadiol, reference compound]
IC50 [3, 11]: 979 nM | Activity (human VDR [2]; [8]): very weak agonist activity | Activity (human VDR [5]; [13]): Active | Activity (human VDR [5]; antagonists, transient transactivation assay in the presence of 3 nM 1,25D3, listed as menadiol): moderate to marked synergistic activity | IC50 (human VDR [5]; [14]): 3490 nM and 3500 nM | AC50 (human VDR [5]; read-out: AC50): 45800 nM | Derived Efficacy (fold inhibition) (human VDR [5]; [12]): 101.7383 fold inhibition

COC(=O)c1nc(Cl)c(Cl)nc1N [Methyl 3-amino-5,6-dichloropyrazine-2-carboxylate]
AC50 [1]: 8780 nM | AC50 (human VDR [2]; [7]): 0.446 µM | Activity (human VDR [2]; [8]): Active | Derived Efficacy (fold induction) (human VDR [2]): 44.5165 fold induction

[Au+].[C-]#N.[C-]#N.[K+] [Potassium dicyanoaurate]
IC50 [3]: 91.2 nM | pattern of change of 1,25D3 induced VDR:coregulator interaction [4]: selectively inhibited VDR:SRC-1 interactions only in the presence of full length wild type RXR | Activity (human VDR [5]): Active | Derived Efficacy (fold inhibition) (human VDR [5]): 76.1807 fold inhibition | IC50 (human VDR [5]; [10]): 98.5 nM

Nc1ccc2cc3ccc(N)cc3nc2c1 [Proflavine hydrochloride]
IC50 [3, 11]: 3410 nM | Activity (human VDR [5]; [13]): Active | AC50 (human VDR [5]; [15]): 668 nM | IC50 (human VDR [5]; [14]): 555 nM | Derived Efficacy (fold inhibition) (human VDR [5]; [12]): 68.3825 fold inhibition

CC/C(=C(\c1ccccc1)c1ccc(OCCN(C)C)cc1)c1ccccc1 [Tamoxifen citrate, reference compound]
AC50 [1]: 33000 to 56000 nM

C[C@]1(Cn2ccnn2)[C@H](C(=O)O)N2C(=O)C[C@H]2S1(=O)=O [Tazobactam sodium, reference compound]
IC50 [3, 11]: 1980 nM | Activity (human VDR [5]; [13]): Active | IC50 (human VDR [5]; [14]): 283 nM | Derived Efficacy (fold inhibition) (human VDR [5]; [12]): 79.1108 fold inhibition

CN(C)C(=S)SSC(=S)N(C)C [Thiram]
Activity (human VDR [5]; [13]): Active | AC50 (human VDR [5]; [15]): 479 nM | IC50 (human VDR [5]; [14]): 420 nM and 428 nM | Derived Efficacy (fold inhibition) (human VDR [5]; [12]): 76.1807 fold inhibition | Fold Change (pMNCoR + EpSG5) (VDR:NCoR): 1.7

Nc1nc(N)c2nc(-c3ccccc3)c(N)nc2n1 [Triamterene, reference compound]
% Induction, pMSRC-1NR + EpSG5 (VDR:SRC-1): 0.9% | AC50 [1]: 5300 to 42100 nM | AC50 (human VDR [2]; [6]): 12.2 µM | AC50 (human VDR [2]; [7]): 3.07 µM | Activity (human VDR [2]; [8]): Active | Derived Efficacy (fold induction) (human VDR [2]): 14.7020 fold induction

[OH-].c1cc[c]([Sn+]([c]2ccccc2)[c]2ccccc2)cc1 [Triphenyltin hydroxide]
IC50 [3]: 92.9 nM | pattern of change of 1,25D3 induced VDR:coregulator interaction [4]: consistently attenuate recruitment VDR:RXR and VDR:SRC-1 in both the presence and absence of co-expressed coregulators | Activity (human VDR [5]): Active | Derived Efficacy (fold inhibition) (human VDR [5]): 89.3748 fold inhibition | IC50 (human VDR [5]; [10]): 45.4 nM

Cadmium dinitrate
IC50 [3]: 167 nM | pattern of change of 1,25D3 induced VDR:coregulator interaction [4]: enhanced recruitment of VDR:RXR and VDR:SRC-1 in both the presence and absence of co-expressed coregulators | Activity (human VDR [5]): Active | Derived Efficacy (fold inhibition) (human VDR [5]): 82.6111 fold inhibition

Tributyltin chloride
IC50 [3]: 959 nM
